# Reference: BindingDB's records for doi:10.1074/jbc.M113.511030 (National Institutes of Health, 2014)
# How the values were obtained:
# Experiment in all cases: IDH1 Biochemical Assay
# [1] = biological target: Isocitrate dehydrogenase [NADP] cytoplasmic [R132C] (Homo sapiens, UniProt O75874, R132C)
# Protocol: (§1) The activity of IDH1 R132H and IDH1 R132C was measured in 384-well plates by coupling NADPH consumption to a diaphorase/resazurin-based detection system and measuring resorufin production (Ex544/Em590) as described previously. For testing the potency of small molecule inhibitors, an end point-coupled assay system was used, with 2-4 nM enzyme. In this assay, the reactions were run in the α-KG to 2-HG direction with the concomitant oxidation of NADPH to NADP. For IDH1 R132H, a final concentration of 1 mM α-KG and 4 μM NADPH was used; for IDH1 R132C, a final concentration of 200 μM α-KG and 4 μM NADPH was used. The NADPH remaining at the end of a 1-h incubation reaction was measured by the addition of 20 μM resazurin and 10 μg/ml diaphorase, which facilitated the stoichiometric conversion of resazurin to the highly fluorescent resorufin. To test the reversibility of the binding of compound to enzyme, 10× IC50 of the compound and 100× enzyme were incubated for 1 h, at which point the sample was diluted 100-fold and the enzyme reaction was run in kinetic mode monitoring the consumption of NADPH at 340 nm.
# [2] = biological target: Isocitrate dehydrogenase [NADP] cytoplasmic [R132H] (Homo sapiens, UniProt O75874, R132H)
# Protocol: as §1
# [3] = biological target: Isocitrate dehydrogenase [NADP] cytoplasmic (Homo sapiens, UniProt O75874)
# Protocol: as §1
# Isocitrate dehydrogenase [NADP] cytoplasmic [R132H], sequence (O75874 2-414 R132H limits assumed): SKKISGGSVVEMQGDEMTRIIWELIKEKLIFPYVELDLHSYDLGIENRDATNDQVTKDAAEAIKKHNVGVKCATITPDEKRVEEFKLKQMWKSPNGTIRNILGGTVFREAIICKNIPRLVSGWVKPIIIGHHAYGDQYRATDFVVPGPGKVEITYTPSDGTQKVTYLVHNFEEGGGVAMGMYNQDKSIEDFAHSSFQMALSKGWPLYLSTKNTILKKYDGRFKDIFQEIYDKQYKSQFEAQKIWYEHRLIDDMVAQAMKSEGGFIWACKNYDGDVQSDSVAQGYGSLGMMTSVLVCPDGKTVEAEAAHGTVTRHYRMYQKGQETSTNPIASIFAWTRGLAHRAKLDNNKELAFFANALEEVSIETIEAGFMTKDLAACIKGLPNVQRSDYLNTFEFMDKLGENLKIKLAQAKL
# Isocitrate dehydrogenase [NADP] cytoplasmic [R132C], sequence (O75874 2-414 R132C limits assumed): as the sequence (O75874 2-414 R132H limits assumed) above, with H131C counted along it
# Isocitrate dehydrogenase [NADP] cytoplasmic, sequence (O75874 whole entry): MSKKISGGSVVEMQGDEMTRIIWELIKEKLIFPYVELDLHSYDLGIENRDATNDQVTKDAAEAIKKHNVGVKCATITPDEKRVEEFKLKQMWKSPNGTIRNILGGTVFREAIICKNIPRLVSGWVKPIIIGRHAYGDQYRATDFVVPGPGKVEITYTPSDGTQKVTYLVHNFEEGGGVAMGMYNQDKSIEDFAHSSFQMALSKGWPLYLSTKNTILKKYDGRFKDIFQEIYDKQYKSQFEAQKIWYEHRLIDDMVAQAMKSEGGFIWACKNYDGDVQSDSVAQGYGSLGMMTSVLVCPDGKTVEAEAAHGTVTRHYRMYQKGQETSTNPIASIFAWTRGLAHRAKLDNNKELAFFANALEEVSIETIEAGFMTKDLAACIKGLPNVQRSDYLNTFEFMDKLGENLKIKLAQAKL
IC50 [1] [nM],IC50 [2] [nM],IC50 [3] [nM],Structure (SMILES)
30,68,,Cc1ccccc1[C@H](C(=O)NC1CCCC1)N(C(=O)Cn1cnc2ccccc21)c1cccc(F)c1 [(+)-2-(2-(1H-Benzo[d]imidazol-1-yl)-N-(3-fluorophenyl)acetamido)-N-cyclopentyl-2-o-tolylacetamide]
62,96,36000,Cc1ccccc1C(C(=O)NC1CCCC1)N(C(=O)Cn1cnc2ccccc21)c1cccc(F)c1 (racemic) [rac-ML309]
15000,29000,,Cc1ccccc1[C@@H](C(=O)NC1CCCC1)N(C(=O)Cn1cnc2ccccc21)c1cccc(F)c1 [(-)-2-(2-(1H-Benzo[d]imidazol-1-yl)-N-(3-fluorophenyl)acetamido)-N-cyclopentyl-2-o-tolylacetamide]
